Results reported in US20070155698A1, “Oxazaborolidines as bacteria effectors” (priority 2003, published 2007).
In brackets after ≈: the same amount, converted by molar mass. Where two headings read alike, the source gives them in different places.

Key:
S. mutans ATCC 27351 = experiment: Minimal inhibitory concentration (MIC), turbidity of overnight growth; format: cell-based; settings: for MIC: Streptococcus mutans, read-out: MIC Mean
Experimental: Sterile microculture dishes containing multiple wells were used to determine the minimal inhibitory concentration MIC) of eight derivatives of oxazborolidines. Each well contained 120 μl of brain heart infusion medium, 15 μl of an overnight suspension of S. mutans ATCC 27351 adjusted to 1 OD540 nm and 15 μl of the tested compound. Each compound was tested at five different concentrations between 0-50 mM. Each experiment was repeated twice. These cultures were incubated at 37° C. in atmosphere enriched in 5% CO2 for 24 hours. Bacteria growth was determined as turbidity of the over night growth and was determined by computerized ELISA reader (Thermomax microplate reader, Molecular Devices, USA) at 650 nm. Control cultures of bacteria with no oxazaborolidines added and media broth with the oxzaborilidines added but with no bacteria were conducted.

[1] = test system: bacterial adhesion to hydroxyapatite (HA) beads; experiment: Adhesion of radioactively labeled bacteria to hydroxyapatite beads; format: cell-based; settings: 60 mM
Experimental: 40 mg samples of hydroxyapatite (HA) beads (Ceramic hydroxyapatite type I, 80 um, Bio-Rad Laboratories, Hercules, Calif., USA)) (surface area, 0.63 cm^2/mg) were equilibrated with 3 washes of buffered KCl to which 250 μl of labeled radioactive bacteria (prepared as described above), 400 μl of the tested boronic compound and 50 μl of 700 mM sucrose (in KCl buffer solution) were added. The mixture was incubated for 60 min at 37 C with gentle rotation. At the end of the incubation period, the beads were washed 3 times with buffered KCl for removal of unbound components, especially the non-adsorbed labeled bacteria, and then rinsed with 2 ml ethanol into vials containing 10 ml scintillation fluid (Ecoscint A, National Diagnostics, Manville, N.J.). The amount of radioactively labeled bacteria adsorbed onto the HA beads was measured by scintillation counting (BETAmatic scintillation counter (Koutron®, Basel, Switzerland). Results are expressed as percent of bacterial adhesion in comparison to a control group containing no agent.

[2] = Effect of pH on the oxazaborolidine derivatives (11B NMR); format: physicochemical; settings: pH=10.8
Source text: At pH=10.8, the free n-butylboronic acid has a chemical shift of 19.974 ppm, while BNO3, the B-butyl containing derivative gives two peaks, one at 24.868 ppm (90%) which is the intermediate and a peak at 6.8 ppm (10%) that belongs to the mentioned above complex. At further basic conditions, a peak at 5.2 ppm exist which indicate a complete conversion to an ate-complex moiety.
On the other hand, the B-phenyl containing derivatives are converted to the ate-complex once they are fully dissolved in H2O, the ate-complex appears at 5.461 ppm in the ^11B NMR.

[3] = test system: AI-2 reporter strain Vibrio harveyi BB170; experiment: Induction of bioluminescence in the AI-2 reporter strain (quorum sensing); format: cell-based
Experimental: Bright overnight culture was diluted 1:5000 and the bioluminescence was traced along growth of the diluted bacterial culture. BNO-1 in tested concentrations was added at start of the bacterial growth. For calculation of fold induction was used the bioluminescence levels at 3 hr after start of the growth.
(§1) Luminescence was monitored by Lumac/3M Biocounter M2010, Netherlands. Culture density was measured as CFU on selective solid LM (L-marine) medium per ml of culture. Relative luminescence (“bioluminescence” in figures) was calculated as quotient of luminescence and culture density and expressed in relative light units (RLU, count/10^6 CFU).
(§2) Fold induction was calculated as relation between induced by BNO-1 and not induced relative luminescence. A measure of inhibition was defined as relation of induced by AI-2 relative luminescence in the presence and in the absence of BNO-2.

[4] = test system: AI-2 reporter strain Vibrio harveyi BB170; experiment: Inhibition of AI-2-induced bioluminescence (quorum sensing); format: cell-based; settings: added together with exogenous AI-2
Experimental: Bright overnight culture was diluted 1:5000 and the bioluminescence was traced along growth of the diluted bacterial culture at the presence of AI-2 which was added at start of the bacterial growth in the induced concentration. BNO-2 in tested concentrations was added at start of the bacterial growth. The residual bioluminescence is expressed as part of maximal, AI-2-inducted and non-inhibited bioluminescence. For the calculation was used bioluminescence level at 2.5 hr after start of the growth.
as §1, §2

[5] = ATCC27351, S. mutans, 24 hours, 37° C.

Compound	antibacterial efficacy against S. mutans (MIC based, in words) (S. mutans ATCC 27351)	MIC Range (S. mutans ATCC 27351; S. mutans, 24 hours, 37° C.)	MIC (S. mutans ATCC 27351; [5])	also measured
CCCCB1OC(c2ccccc2)C(C)N1C (stereo not drawn) [BNO5, 2-butyl-3,4-dimethyl-5-phenyl-1,3,2-oxazaborolidine]	most active	0.26 to 0.80 mM	530 µM (≈ 123 µg/mL)	
CC1NB(c2ccccc2)OC1c1ccccc1 (stereo not drawn) [BNO4, 4-methyl-2,5-diphenyl-1,3,2-oxazaborolidine]		0.90 to 1.75 mM	1330 µM (≈ 315 µg/mL)	
[(2-)-N,O,O′[2,2′-Iminobis[ethanolato]]]-2-phenylboron [BNO8]	weakest activity	4.5-9. mM		MIC Mean (S. mutans ATCC 27351; S. mutans, 24 hours, 37° C.): 6750 µM
CCCCB1NC(C)C(c2ccccc2)O1 (stereo not drawn) [BNO6, 2-butyl-4-methyl-5-phenyl-1,3,2-oxazaborolidine]		1.90 to 3.75 mM	2830 µM (≈ 614 µg/mL)	
CCCCB1NC(C)(C)CO1 [BNO3, 2-butyl-4,4-dimethyl-1,3,2-oxazaborolidine]		2.25 to 4.5 mM	3380 µM (≈ 524 µg/mL)	reduction of bacterial capability to adhere to hydroxyapatite surface [1]: 63%; share of ate-complex (11B NMR peak at 6.8 ppm) [2]: 10%; share of intermediate (11B NMR peak at 24.868 ppm) [2]: 90%
CC1C(c2ccccc2)OB(c2ccccc2)N1C (stereo not drawn) [BNO1, 3,4-dimethyl-2,5-diphenyl-1,3,2-oxazaborolidine]	most active	0.77 to 2.33 mM		MIC (S. mutans ATCC 27351; ATCC27351, 24 h): 1550 µM (≈ 389 µg/mL); induction of bioluminescence of Vibrio harveyi BB170 ([3]; dose dependent, sensor 1− sensor 2+): induced; induction of bioluminescence in mutants with sensor 2− ([3]; sensor 2− mutants): do not react
[(2-)-N,O,O′[2,2′-Iminobis[ethanolato]]]-2-n-butylboron [BNO7]	weakest activity	4.5 to 9.0 mM		MIC Mean (S. mutans ATCC 27351; S. mutans, 24 hours, 37° C.): 6750 µM
CC1(C)COB(c2ccccc2)N1 [BNO2, 4,4-dimethyl-2-phenyl-1,3,2-oxazaborolidine]		2 to 10 mM	6000 µM (≈ 1050 µg/mL)	promotion of bacterial adhesion [1]: 37%; inhibition of the ability of exogenous AI-2 to induce bioluminescence [4]: strongly inhibited
